Where “and” joins values, the source holds several entries; their conditions need not be identical. Identical values can stand only once. Like-named read-outs stand apart in the source and are kept apart here.
Experiments:
[1] = tested on: HCC827_936 cells (EGFR exon19del and exon20ins) tumor xenograft
Experimental: (§1) Xenotransplantation of human cancer cells into immunocompromised mice is a gold-standard model used for pre-clinical oncology research and testing of anti-cancer therapies. In general, human cancer cell lines are injected below the skin of the mouse. […] The primary outcome parameter is growth inhibition by the drug, for which tumor size is measured over time, often externally with calipers. After the tumor reaches a certain size, the mice are euthanized. Drug effects on the tumor are further analyzed on a tissue level or molecular level (e.g., DNA, proteins). The primary outcome parameter of a xenograft model for testing drug efficacy is the growth of the treated tumor versus control. Typically, xenograft tumors grow from 100 mm^3 (6 mm diameter) to 1000 mm^3 (12 mm diameter) in several weeks. The growth rate often declines with larger tumor sizes, as opposed to exponential growth in (2D) in vitro experiments. Tumor growth inhibition varies per drug and implanted cell line. The effect of therapeutics can be directly on tumor cells, or indirectly via the microenvironment such as the inhibition of vessel formation, or both.
(§2) The experiment animals used were of Balb/c-nu mouse, female, ages 5^˜7 weeks, weight 17^˜21 g.
(§3) To establish xenograft model of NSCLC, two lung cancer cell lines expressing were used. Human lung adenocarcinoma cell line HCC827_936 was clonally derived from HCC827 cell line isolated from NSCLC tissue of a patient (ATCC). HCC827_936 cells express EGFR mutations of exon19del and exon20ins. The other lung cancer cell line, NCI-H1975 cells (ATCC), express the EGFR L858R/T790M double mutation.
(§4) Each of the three human cancer cell lines was cultured in RPMI1640 medium containing 10% fetal bovine serum, collected in the exponential growth phase, resuspended in PBS to a suitable concentration, and used for subcutaneous tumor implantation in mice.
When the tumor grew to an average volume of about 163 mm^3, randomly grouped according to tumor size and mouse weight to establish HCC827_936 xenograft model.
(§5) Tumor volume (mm^3) V=½×[…], where a represents the long diameter and b represents the short diameter. Relative tumor volume (RTV), RTV=Vt/V0, where V0 is the tumor volume at time 0 and Vt is the tumor volume after treatment at time t. The T/C value (%) is an indicator of the tumor response to treatment and is the most used evaluation indicator. T/C %=TRTV/CRTV×100%, where TRTV is treatment group average RTV and CRTV is control group average RTV. The T/C value (%) can also be calculated as T/C %=TTW/CTW×100%, where TTW is the average tumor weight at the end of the treatment group experiment and CTW is the average tumor weight at the end of the control group experiment.

[2] = tested on: NCI-H1975 cells (EGFR L858R/T790M) tumor xenograft
Experimental: as §1, §2, §3, §4
When the tumor grew to an average volume of about 170 mm^3, randomly grouped according to tumor size and mouse weight to establish […] NCI-H1975 xenograft model.
as §5

[3] = tested on: FaDu cells (wild type EGFR) tumor xenograft
Experimental: as §1, §2
To establish xenograft model of HNSCC, human head and neck cancer cells, FaDu cells, were transplanted into the mice to establish the xenograft model of HNSCC. FaDu is a cell line isolated from a hypopharyngeal tumor of a squamous cell carcinoma patient, which expresses wild type EGFR (ATCC).
as §4
When the tumor grew to an average volume of about 230 mm3, randomly grouped according to tumor size and mouse weight to establish human head and neck squamous cell carcinoma cells FaDu xenograft model.
as §5, with “(mm3)” for “(mm^3)”

[4] = Osimertinib 96 mg/kg/wk p.o. QD, Day 31
[5] = Osimertinib 96 mg/kg p.o. QD, Day 25

| Molecule | T/C [1, 4] [%] | Tumor volume x ± SD [1, 4] [mm^3] | mortality rate ([1]; Osimertinib single-agent (96 mg/kg), before D31) [%] | mice died before D31 ([1]; female, Balb/c-nu, mouse, in vivo) | TGI ([1]; mouse, in vivo) | Tumor volume x ± SD ([1]; mouse, in vivo) [mm^3] | T/C [2, 5] [%] | Tumor volume x ± SD [2, 5] [mm^3] | TGI ([2]; mouse, in vivo) | Tumor volume x ± SD ([2]; mouse, in vivo) [mm^3] | mice died before D25 ([2]; mouse, in vivo) | body weight / weight loss ([3]; all dose groups of the treatment) | death of mice before the end of the experiment ([3]; all dose groups of the treatment, 5 mice per group) | mortality rate ([3]; paclitaxel 20.6 + carboplatin 28 mg/kg i.v. QW) [%] | mice with severe weight loss (>20%) before death ([3]; paclitaxel 20.6 + carboplatin 28 mg/kg i.v. QW, of the 4 mice that died) | TGI ([3]; paclitaxel […] + carboplatin 28 mg/kg i.v. QW) [%] |
| --- | --- | --- | --- | --- | --- | --- | --- | --- | --- | --- | --- | --- | --- | --- | --- | --- |
| C=CC(=O)Nc1cc(Nc2nccc(-c3cn(C)c4ccccc34)n2)c(OC)cc1N(C)CCN(C)C [Osimertinib] | 45.1 | 344.53 | 60 | 3 | 54.89% and 54.9% | 344.5 ± 23.6 | 4.7 | 75.02 | 95.35% and 95.4% | 75.0 ± 60.3 | no mouse died |  |  |  |  |  |
| paclitaxel+carboplatin |  |  |  |  |  |  |  |  |  |  |  | fluctuated significantly | 4 | 80 | 3 | 56.16 |

Reference: patent US20240398943A1, “METHODS OF TREATING CANCER AND THE PHARMACEUTICAL COMPOSITIONS THEREOF” (SYSTIMMUNE, INC., priority 2021, published 2024)
